The values that follow come from US20110092440A1, “METHOD OF REGULATING CELL GROWTH USING A PROTEASOME INHIBITOR” (THE BOARD OF TRUSTEES OF THE UNIVERSITY OF ILLINOIS, priority 2008, published 2011).

The test system of data set [1] is FoxM1 transcriptional activity. Nature of the data set: FoxM1-dependent luciferase assay in U2OS-C3-Luc cells. It is filed as cell-based, human. The conditions noted are these: 1 μg/ml doxycycline, 24 hours, FIG. 2A. Here is the method:
The effects of proteasome inhibitors on FoxM1 transcriptional activity were tested by examining FoxM1-dependent luciferase activity in a luciferase assay. It was previously reported that thiazole antibiotics inhibited FoxM1-dependent transcriptional activity by measuring the reduction of luciferase activity in a U2OS-derived cell line stably expressing doxycycline-inducible FoxM1 and FoxM1-dependent luciferase (the U2OS-C3-Luc cell line). See U.S. Patent Application Publication No. 2008/0152618; Radhakrishnan et al. 2006; and Bhat et al., 2009. The same cell line was used in this experiment. U2OS-C3-Luc cells were treated with a combination of 1 μg/ml doxycycline and proteasome inhibitors at indicated concentrations for 24 hours, and the luciferase activity was measured. The luciferase activity was determined by using either the Luciferase Assay System (Promega, Madison, Wis.) or the Dual-Luciferase reporter assay system (Promega) according to the manufacturer's instructions.
The results shown in FIG. 2A (1) were normalized by the amount of proteins in the sample; and the results shown in FIG. 2A (2) were normalized using the Dual-luciferase reporter assay system (Promega).

Data set [2] has as its system FoxM1 protein. Nature of the data set: Immunoblot analysis of FoxM1 protein levels in tumor cells. It counts as cell-based, human. The conditions noted are these: U266, RPMI8226, HL-60 and U2OS cells, 24 hours, FIG. 2B. Here is the method: The effects of proteasome inhibitors on FoxM1 protein expression were also examined. U266 and RPMI8226, both multiple myeloma cells, HL-60 leukemia cells and human U2OS osteosarcoma cells were treated with proteasome inhibitors MG115, MG132 and VELCADE® for 24 hours. Cell lysates were harvested and the FoxM1 protein levels were analyzed by immunoblot analysis. […] See also U.S. Patent Application Publication No. 2008/0152618.

Data set [3] deals with U266 and RPMI8226 multiple myeloma, HL-60 leukemia and U2OS osteosarcoma cells. Nature of the data set: Annexin V-PE/7AAD staining, FACS analysis of apoptosis. The settings on record: U266, RPMI8226, HL-60 and U2OS cells, FIG. 3. It counts as cell-based, human. Here is the method: Proteasorne inhibitor-induced apoptosis was further quantified by using Annexin V-PE/7AAD staining. U266 and RPMI8226 multiple myeloma, HL-60 leukemia and U2OS osteosarcoma cells were cultured in the presence of proteasome inhibitors MG115, MG132 and VELCADE®. Following proteasome inhibitor treatment (or DMSO in the control), cells were stained with Annexin V-PE/7AAD (BD-Pharmingen, Franklin Lakes, N.J.) and then analyzed by Fluorescence-activated Cell Sorting (FACS). […] The concentrations of proteasome inhibitors used in the experiments shown in FIG. 3 were the same as those in FIG. 2. The percentages of apoptotic cells were shown in the parentheses in FIG. 3. The induction of apoptosis correlated with the suppression of FoxM1 (see FIG. 3 and FIG. 2B).

The target in data set [4] is T1, 20S proteasome (Homo sapiens, UniProt P28074).
T1 construct: Millipore
Nature of the data set: 20S Proteasome Activity Assay Kit (LLVY-AMC cleavage). It counts as biochemical. The settings on record: 25 μM, 15 minutes pre-incubation, 1 hour at 37° C., FIG. 1C. Here is the method:
The effects of Siomycin A and thiostrepton on the 20S proteasome were compared with proteasome inhibitors MG132 and lactacystin using the Proteasome Activity Assay Kit following the manufacturer's instructions (Millipore). […] Proteasome samples were prepared according to the manufacturer's instructions. […] Samples were incubated for 1 hour at 37° C. and the fluorescence derived from the cleaved AMC was detected and quantified using a 380/460 nm filter in a fluorometer (Spectra Max GeminiXS, Molecular Devices, Sunnyvale, Calif.).

Data set [5] has as its system Hdm2, p53, Mcl-1 and p21 protein levels in U2OS cells. Nature of the data set: Immunoblot analysis of Hdm2, p53, Mcl-1 and p21 protein levels in U2OS cells. It is filed as cell-based, human. The settings on record: FIG. 1A. The text has this:
The effects of Siomycin A on the protein levels of these genes in the cells were compared with those of a proteasome inhibitor MG132.
A general note: Immunoblotting shows a protein as a band on a membrane.

The subject of data set [6] is NF-κB transcriptional activity. Nature of the data set: TNF-α-induced NF-κB-dependent luciferase assay in 293T-NF-κB-Luc cells. It is filed as cell-based. The settings on record: 10 ng/mL TNF-α 24 hours, then compound 10 hours, FIG. 1B. Here is the method:
Proteasome inhibitors were known to inhibit the activity of NF-κB via the stabilization of its negative regulator IκB-α (Nakanishi et al., 2005, Nat Rev Cancer 5:297-309; Nencioni et al., 2007). The effects of Siomycin A and thiostrepton on NF-κB-dependent transcriptional activity were tested. 293T cells stably transfected with an NF-κB-Luc reporter construct (293T-NF-κB-Luc) were induced with 10 ng/mL TNF-αfor 24 hours. The next day, the cells were treated with Siomycin A or thiostrepton for an additional 10 hours, and followed by luciferase assay. The luciferase activity was determined by using the Luciferase Assay System (Promega, Madison, Wis.) according to the manufacturer's instructions. The data were normalized based on the amount of proteins in the samples.

The test system of data set [7] is Mia Paca cells. The data set can be described thus: Apoptosis induction by Siomycin A alone, Mia Paca. It counts as cell-based, human. The settings on record: data not shown.
In data set [8] the test system is BxPC3 cells. Nature of the data set: Apoptosis induction by Siomycin A alone, BxPC3. It is filed as cell-based, human. The conditions noted are these: data not shown.
The test system of data set [9] is MDAMB231 cells. Nature of the data set: Apoptosis induction by Siomycin A alone, MDAMB231. The conditions noted are these: data not shown. It is filed as cell-based, human.
In data set [10] the test system is HPAC cells. The data set can be described thus: Apoptosis induction by Siomycin A alone, HPAC. It counts as cell-based, human. The conditions noted are these: data not shown.
The subject of data set [11] is FoxM1 transcriptional activity. The settings on record: previously reported (US 2008/0152618; Radhakrishnan et al., 2006); cited from earlier work.
The subject of data set [12] is U2OS-C3 cells. The data set can be described thus: Active caspase 3 immunoblot in U2OS-C3 cells with doxycycline-induced FoxM1 over-expression. It counts as cell-based, human. The settings on record: compound 24 hours, FIG. 4. Here is the method: Over-expression of FoxM1 was often observed in a variety of tumors. See Pilarsky et al., 2004, Neoplasia 6(6):744-750; Chan et al., 2008, J Pathol 215(3):245-252. A U2OS-derived cell line stably expressing doxycycline-inducible FoxM1-GFP fusion protein (U2OS-C3) was used to examine the role of FoxM1 in apoptosis induced by proteasome inhibitors. Exogenous FoxM1 expression was induced by doxycycline and the following day the cells were treated with different concentrations of VELCADE® for 24 hours.

In data set [13] the test system is Prostate cancer DU145 and PC3 cells. It counts as cell-based. The conditions noted are these: data not shown.
The conditions of data set [14]: toxicity studies, Aghajanian et al., 2002; cited from earlier work.

Non-standard residues stand in square brackets, D forms with d. Residues, ends and D or L forms follow the SMILES beside them. *: point of attachment. Nva = CCC[C@H](N)C(=O)O; Cbz = O=C(OCc1ccccc1)*; OtBu = CC(C)(C)O*

Regarding `CCC[C@@H](C=O)NC(=O)[C@H](CC(C)C)NC(=O)[C@H](CC(C)C)NC(=O)OCc1ccccc1` [MG115, Z-L-leucyl-L-leucyl-L-norvalinal] (Cbz-Leu-Leu-[Nva]-aldehyde), the “FoxM1 transcriptional activity (luciferase)” value in data set [1] is listed as “inhibited FoxM1 transcriptional activity”. Besides, the “levels of FoxM1 protein” value in [2] was “the levels of FoxM1 protein decreased”. In addition, the “induction of apoptosis (Annexin V-PE/7AAD)” value (“induction of apoptosis” below) in data set [3] is “induced apoptosis in the cells”.
Take `CC(C)C[C@@H](C=O)NC(=O)[C@H](CC(C)C)NC(=O)[C@H](CC(C)C)NC(=O)OCc1ccccc1` [MG132, Z-L-leucyl-L-leucyl-L-leucinal] (Cbz-Leu-Leu-Leu-aldehyde): in [4], the “proteolytic activity of the 20S proteasome (free AMC)” value (from here on “proteolytic activity … (free AMC)”) was “the decrease was not as prominent as that by MG132 or lactacystin”. The “FoxM1 transcriptional activity (luciferase)” value in data set [1] is “inhibited FoxM1 transcriptional activity”. Besides, in data set [2], the “levels of FoxM1 protein” value is given as “the levels of FoxM1 protein decreased”. Further, the “induction of apoptosis” value in data set [3] is “induced apoptosis in the cells”.
With `CC[C@H](C)[C@H](NC(=O)OCc1ccccc1)C(=O)N[C@@H](CCC(=O)OC(C)(C)C)C(=O)N[C@@H](C)C(=O)N[C@H](C=O)CC(C)C` [PSI, N-benzyloxycarbony-Ile-Glu-(O-t-butyl)-Ala-leucinal] (Cbz-IE(OtBu)AL-aldehyde), the “FoxM1 transcriptional activity (luciferase)” value in [1] is “inhibited FoxM1 transcriptional activity”.
For `C=C(NC(=O)C(=C)NC(=O)c1csc(C2=N[C@@H]3c4csc(n4)[C@H]4NC(=O)c5csc(n5)[C@H]([C@](C)(O)[C@@H](C)O)NC(=O)[C@H]5CSC(=N5)/C(=C/C)NC(=O)[C@H]([C@@H](C)O)NC(=O)c5csc(n5)[C@]3(CC2)NC(=O)[C@H](C)NC(=O)C(=C)NC(=O)C(=C)NC(=O)[C@H](C(C)C)N[C@@H]2C=Cc3c([C@H](C)O)cc(nc3[C@H]2O)C(=O)O[C@@H]4C)n1)C(N)=O` [Siomycin A], the “cellular protein levels of Hdm2, p53, Mcl-1 and p21” value in data set [5] was “increased the cellular protein levels of Hdm2, p53, Mcl-1 and p21”. Further, the “TNF-α-induced NF-κB transcriptional activity” value in data set [6] was “suppressed TNF-α-induced NF-κB transcriptional activity”. Moreover, the “proteolytic activity … (free AMC)” value in [4] is on record as “decreased proteolytic activity of the 20S proteasome”. The “concentration required to induce apoptosis when used alone” value in data set [7] is 5 µM; in [8], 5 µM; in [9] it was 5 µM; in [10], 10 to 15 µM. For the same compound, the “FoxM1 transcriptional activity and FoxM1 protein expression, reported previously” value in data set [11] is on record as “inhibited FoxM1 transcriptional activity as well as FoxM1 protein expression in cells”.
For `CC(C)C[C@H](NC(=O)[C@H](Cc1ccccc1)NC(=O)c1cnccn1)B(O)O` [VELCADE®, pyrazylcarbony-phenylalanyl-leucyl-boronate], the “FoxM1 transcriptional activity (luciferase)” value in data set [1] is given as “inhibited FoxM1 transcriptional activity”. The “levels of FoxM1 protein” value in data set [2] is given as “the levels of FoxM1 protein decreased”. In addition, the “induction of apoptosis” value in data set [3] is “induced apoptosis in the cells”. Also, in [12], the “active caspase 3 expression in cells over-expressing FoxM1” value is “VELCADE®-induced active caspase 3 expression was reduced in cells that over-expressed FoxM1”. For the same compound, in data set [13], the “minimal concentration required for induction of caspase 3 expression, compound alone” value is 50 nM. Moreover, in data set [14], the therapeutic index result was “very narrow therapeutic index”.
For `COc1cccc2c1C(=O)c1c(O)c3c(c(O)c1C2=O)C[C@@](O)(C(=O)CO)C[C@@H]3O[C@H]1C[C@H](N)[C@H](O)[C@H](C)O1` [doxorubicin], the “active caspase 3 expression in cells over-expressing FoxM1” value in [12] is on record as “over-expression of FoxM1 did not protect against doxorubicin-induced caspase 3 expression”.
With `CC(=O)N[C@@H](CSC(=O)[C@]1([C@@H](O)C(C)C)NC(=O)[C@H](C)[C@@H]1O)C(=O)O` [lactacystin], the “proteolytic activity … (free AMC)” value in data set [4] is reported as “the decrease was not as prominent as that by MG132 or lactacystin”.
On to `C=C(NC(=O)C(=C)NC(=O)c1csc(C2=N[C@@H]3c4csc(n4)[C@H]4NC(=O)c5csc(n5)[C@H]([C@](C)(O)[C@@H](C)O)NC(=O)[C@H]5CSC(=N5)/C(=C/C)NC(=O)[C@H]([C@@H](C)O)NC(=O)c5csc(n5)[C@]3(CC2)NC(=O)[C@H](C)NC(=O)C(=C)NC(=O)[C@H](C)NC(=O)[C@H]([C@@H](C)CC)N[C@@H]2C=Cc3c([C@H](C)O)cc(nc3[C@H]2O)C(=O)O[C@@H]4C)n1)C(N)=O` [thiostrepton], for which the “TNF-α-induced NF-κB transcriptional activity” value in data set [6] was “suppressed TNF-α-induced NF-κB transcriptional activity”. Further, the “proteolytic activity … (free AMC)” value in data set [4] is on record as “decreased proteolytic activity of the 20S proteasome”. In addition, the “minimal concentration required for induction of caspase 3 expression, compound alone” value in data set [13] was found to be 3000 nM. In addition, the “FoxM1 transcriptional activity and FoxM1 protein expression, reported previously” value in data set [11] is listed as “inhibited FoxM1 transcriptional activity as well as FoxM1 protein expression in cells”.
